Test results from article PMC4976923, “Potent Allosteric Dengue Virus NS5 Polymerase Inhibitors: Mechanism of Action and Resistance Profiling” (PLoS Pathogens, 2016).
Like-named read-outs stand apart in the source and are kept apart here.

Assays:
in vitro = assay type: cell-based; conditions: human, HuH-7 (DENV2 replicon cells); 48 hr; ATP levels
Description: A549, BHK-21 and Huh7 cells bearing stable DENV2 sub-genomic replicon or transiently electroporated DENV2-NGC replicon or infectious virus cDNAs were seeded into 384-well microplate (3,000 cells per well). After over-night incubation at 37°C with 5% CO2, the cells were treated with 2-fold serially diluted compounds, starting from 20 or 50 μM. At 48 hr of post-incubation, renilla luciferase activities were measured with the ViviRen live-cell substrate (Promega, USA) according to the manufacturer’s protocol. CellTiter-Glo reagent (Promega, USA) was then added to determine cytotoxic effects of compounds. For the HCV replicon assay, Huh-7.5 cells harboring the HCV replicon were seeded into a 96-well microplate (20,000 cells per well). At 48 hr after compound treatment, cells were assayed for firefly luciferase activity by using a Bright-Glo luciferase assay (Promega, USA). NITD-008, a nucleoside inhibitor of DENV and HCV was added as a control.

DENV2 FL NS5 = target: T1, DENV2 FL NS5 (Dengue virus type 2, UniProt P14340); assay: DENV2 FL NS5 de novo initiation FAPA assay; assay type: biochemical; conditions: one experiment; read-out: DENV FL NS5 de novo initiation FAPA, IC50, DENV2
T1 construct: made in house
Description: (§1) DENV1-4 FL NS5 dnI assays were performed as described previously. Briefly, compounds from 0–20 or -100 μM concentrations are two-fold serially diluted into 384-well black opaque plates (Corning Costar), after which 100 nM DENV FL NS5 protein was added and the plates incubated at RT for 20 min. RNA and ATTO-CTP, ATP, GTP and UTP were then added and the plates incubated for another 120 min. […] For order-of-addition experiments, DENV4 FL NS5 was incubated for one hour at RT with RNA, ATP, and GTP or RNA, ATP, GTP and ATTO-CTP, followed by exposure to serially diluted compounds for 20 min at RT. The missing components (ATTO-CTP and UTP or UTP alone) were added and the reactions continued for 120 min after which STOP buffer was added as before. All datapoints were performed in duplicate wells. Each compound was tested at least twice.
(§2) 2 Co mpound testing with DENV dn I FAPA assays. Final dn I assa y reaction mixtures
(§3) 3 contained 100 nM DENV 5 ´UTR-L-3´UTR IVT RNA, 20 µ M ATP, 20 µM GTP, 20 µM
(§4) 4 UTP, 5 µM ATTO -CTP, and 100 nM of DENV FL NS5 protein in 15 µl in assa y buffer
(§5) 5 comprising 50 mM Tris/ HCl, pH 7.5, 10 mM KCl, 1 mM MgCl2, 0.3 mM MnCl2 (DENV2
(§6) 6 and 4) or 1 mM MnCl 2 (DENV1 and 3), 0.001% Triton- X-100 and 10 µ M cystein e [ 1] . To
(§7) 7 perform dose-respons e inhibition measurements, compounds from 0- 20 or - 100 µM
(§8) 8 concentr ations are two -fold seriall y diluted into 384-well black opaqu e plat es (Corning
(§9) 9 Costar), after which 100 nM DENV FL NS5 protein was added into resp ect ive wells. The
(§10) 10 plates wer e sealed, b riefl y shak en and centrif uged at 1500 rpm for 30 sec and incubated at RT
(§11) 11 for 15 min. Thereafter,RNA and ATTO -CTP, ATP, GTP and UTP were added to the wells to
(§12) 12 start the reactions. The pl ates wer e re-seal ed, shaken and centrifuged as before, followed b y
(§13) 13 incubation RT for 120 min.
(§14) 15 intestinal phosphatase (CIP), re- incubation at RT for 60 min and read on a Tecan Safire II
(§15) 16 microplate reader. For o r der-of-addition experiments, DENV4 FL NS5 was incubated for one
(§16) 17 hour at RT with RNA, ATP, and GTP or RNA, ATP, GTP and ATTO-CTP, followed by
(§17) 18 exposure to seriall y dilut ed compounds for 20 mi n at RT. The missing components (ATTO-
(§18) 19 CTP and UTP or UTP alone) were added and the reactions continued for 120 min after which
(§19) 20 STOP buffer was added as before. All datapoints were performed in duplicate wells. Each
(§20) 21 compound was tested at l east twice.
(§21) 23 Compound testing in DENV1-4 infected cells by high content imaging. Approximatel y 7
(§22) 24 × 10^3 A549 cells per well were s eeded into 384-well plates in Ham’s F-12K medium

[1] = system: DENV2-NGC Ren-LUC Replicon in HuH-7; assay: Stable HuH-7 DENV2-NGC renilla luciferase replicon assay; assay type: cell-based; conditions: Dengue virus, DENV2, Huh-7, 48 h, read-out: HuH-7 DENV Replicon, DENV2, EC50
DENV1 FL NS5 = target: T2, DENV1 FL NS5 (Dengue virus type 1, UniProt P17763); assay: DENV1 FL NS5 de novo initiation FAPA assay; assay type: biochemical; conditions: one experiment; read-out: DENV FL NS5 de novo initiation FAPA, IC50, DENV1
T2 construct: 100 nM DENV FL NS5 protein was added; made in house
Description: (§23) DENV1-4 FL NS5 dnI assays were performed as described previously. Briefly, compounds from 0–20 or -100 μM concentrations are two-fold serially diluted into 384-well black opaque plates (Corning Costar), after which 100 nM DENV FL NS5 protein was added and the plates incubated at RT for 20 min. RNA and ATTO-CTP, ATP, GTP and UTP were then added and the plates incubated for another 120 min. Reactions were stopped with buffer containing 25 nM CIP, re- incubated at RT for 60 min and read on a Tecan Safire II microplate reader. For order-of-addition experiments, DENV4 FL NS5 was incubated for one hour at RT with RNA, ATP, and GTP or RNA, ATP, GTP and ATTO-CTP, followed by exposure to serially diluted compounds for 20 min at RT. The missing components (ATTO-CTP and UTP or UTP alone) were added and the reactions continued for 120 min after which STOP buffer was added as before. All datapoints were performed in duplicate wells. Each compound was tested at least twice.
as §2, §3, §4, §5, §6, §7, §8, §9, §10, §11, §12
(§24) 13 incubation RT for 120 min. Reactions were stopped by addition of 10 µl of 2.5X STOP
(§25) 14 buffer (200 mM NaCl, 25 mM MgCl2, 1.5M DEA, pH 10; Promega) with 25 nM calf
as §14, §15, §16, §17, §18, §19, §20, §21, §22

DENV4 FL NS5 S797A = target: T3, DENV4 FL NS5 S797A (Dengue virus type 4, UniProt P09866, S3284A); assay type: biochemical; conditions: dnI FAPA; one experiment
T3 construct: Site-directed alanine mutations of DENV4 FL NS5 cDNA; made in house

DENV4 FL NS5 W803A = target: T4, DENV4 FL NS5 W803A (Dengue virus type 4, UniProt P09866, W3291A); assay type: biochemical; conditions: dnI FAPA; one experiment
T4 construct: Site-directed alanine mutations of DENV4 FL NS5 cDNA; made in house

DENV3 FL NS5 = target: T5, DENV3 FL NS5 (Dengue virus type 3, UniProt Q6YMS4); assay: DENV3 FL NS5 de novo initiation FAPA assay; assay type: biochemical; conditions: one experiment; read-out: DENV FL NS5 de novo initiation FAPA, IC50, DENV3
T5 construct: 100 nM DENV FL NS5 protein was added; made in house
Description: as §23, §2, §3, §4, §5, §6, §7, §8, §9, §10, §11, §12, §24, §25, §14, §15, §16, §17, §18, §19, §20, §21, §22

DENV4 FL NS5 [2] = target: T6, DENV4 FL NS5 (Dengue virus type 4, UniProt P09866); assay: biochemical
T6 construct: 100 nM DENV FL NS5 protein was added; made in house
Description: as §1, §2, §3, §4, §5, §6, §7, §8, §9, §10, §11, §12, §13, §14, §15, §16, §17, §18, §19
21 compound was tested at l east twice. […]

DENV4 FL NS5 [3] = target: T6, DENV4 FL NS5; assay: biochemical; conditions: Enzyme + compound; averaged from >3 experiments; read-out: Elongation IC50
DENV4 FL NS5 [4] = target: T6, DENV4 FL NS5; assay type: biochemical; conditions: Lineweaver-Burk plots
DENV4 FL NS5 [5] = target: T6, DENV4 FL NS5; conditions: Enzyme + compound 20 min, then ssRNA and nucleotides, 2 hr; read-out: DENV FL NS5 de novo initiation FAPA, IC50, DENV4; cited from earlier work
[6] = representative dose-response curve, read-out: IC50, best-fit value of representative curve (Fig 1A in S1 Text)

| Compound | CC50 (in vitro) | IC50 (DENV2 FL NS5) | EC50 [1] | IC50 (DENV1 FL NS5) | S797A IC50 (DENV4 FL NS5 S797A) | W803A IC50 (DENV4 FL NS5 W803A) | IC50 (DENV3 FL NS5) | IC50 (DENV4 FL NS5 [2]; Enzyme + compound 20 min, then ssRNA and nucleotides, 2 hr, averaged from ≥3 experiments, read-out: DENV FL NS5 de novo initiation FAPA, IC50, DENV4) | IC50 (DENV4 FL NS5 [2]; compound added to enzyme-dsRNA complex, read-out: de novo IC50, order of addition: [Enzyme + RNA+ ATP+GTP+ATTO-CTP] + compound) | IC50 (DENV4 FL NS5 [2]; compound added to enzyme-dsRNA complex, read-out: de novo IC50, order of addition: [Enzyme + RNA+ATP+GTP] + compound) | IC50 (DENV4 FL NS5 [2]; compound added to pre-formed enzyme-ssRNA complex, read-out: de novo IC50, order of addition: [Enzyme + RNA] + compound) | IC50 (DENV4 FL NS5 [2]; [6]) | IC50 (DENV4 FL NS5 [3]) | mode of inhibition with respect to viral RNA substrate (DENV4 FL NS5 [4]; 0–500 nM RNA) | mode of inhibition with respect to GTP (DENV4 FL NS5 [4]; 0–50 μM GTP) | IC50 (DENV4 FL NS5 [5]) |
| --- | --- | --- | --- | --- | --- | --- | --- | --- | --- | --- | --- | --- | --- | --- | --- | --- |
| Nc1nc2c(ncn2[C@@H]2O[C@H](COP(=O)(O)OP(=O)(O)OP(=O)(O)O)C[C@H]2O)c(=O)[nH]1 [3'dGTP, reference compound] | > 100 µM | 0.62 µM | > 100 µM | 0.52 µM | retained the same IC50 | retained the same IC50 | 0.27 µM | 0.79 ± 0.2 µM | 0.71 ± 0.2 µM | 0.74 ± 0.26 µM | 0.44 ± 0.02 µM | 0.513 µM | 0.43 ± 0.29 µM | non-competitive | competitive | – |
| O=C(O)Cc1cc(CC(=O)O)cc(-c2ccc(Cl)s2)c1 [Compound 11] | > 100 µM | 39.7 µM | > 100 µM | 7.1 µM | – | – | 10.7 µM | – | – | – | – | – | – | – | – | – |
| COc1cc(OC)c(-c2ccc(C#CCO)s2)cc1C(=O)NS(=O)(=O)c1ccccc1 [Compound 26] | > 100 µM | 0.145 µM | 21 µM | 0.075 µM | – | – | 0.057 µM | – | – | – | – | 0.115 µM | – | – | – | 0.251 ± 0.129 µM |
